From patent publication US20060241083A1, “Novel heteroaryl phosphonates as cardioprotective agents” (Medicure International Inc., priority 2003, published 2006)

Tested on: Male Wistar rats
Assay: Ischemia reperfusion: infarct size after LAD occlusion (25 min) and reperfusion (2 h) in anesthetised rats
Format: in vivo, rat
Conditions: 32 mg/kg i.v. bolus 5 min prior to ischemia; 25 min LAD occlusion, 2 h reperfusion; vs vehicle 56±3% of the AAR; P=0.047, unpaired Students t-test; FIG. 2
Procedure: Male Wistar rats (200-300 g, Tuck, Rayleigh, Essex, U.K.) were anesthetised with thiopentone sodium (Intraval®, 120 mg/kg i.p.; Rhone-Merrieux, Essex, U.K.). The rats were tracheotomised, intubated and ventilated with a Harvard ventilator (70 strokes/min, tidal volume: 8-10 mL/kg, inspiratory oxygen concentration: 30%). Body temperature was maintained at 38±1° C. The right carotid artery was cannulated and connected to a pressure transducer (MLT 1050, AD Instruments Ltd, Hastings, UK) to monitor mean arterial blood pressure (MAP) and heart rate (HR), which were continuously recorded on a data acquisition system such as Powerlab® Version 4.0.4, AD Instruments, Hastings, UK. The right jugular vein was cannulated for drug administration and the administration of Evans Blue dye (at the end of the experiment). A lateral thoracotomy was performed and the heart was suspended in a temporary pericardial cradle. A snare occluder was placed around the left anterior descending coronary artery (LAD). After completion of the surgical procedure the animals were allowed to stabilise for 30 min before LAD ligation. Five minutes prior to the onset of myocardial ischemia, a bolus injection (i.v.) of either vehicle or phosphonate was administered. The coronary artery was occluded at time 0 by tightening of the occluder. […]

## Cc1nc(-c2ccccc2)c(C(F)P(=O)(O)O)c(CO)c1O (stereo not shown) [Compound 38, [Fluoro-(5-hydroxy-4-hydroxymethyl-6-methyl-2-phenyl-pyridin-3-yl)-methyl]-phosphonic acid]
  myocardial infarct size (as a percentage of the weight of the AAR): reduced myocardial infarct size
